Reference: patent US20250042916A1 (ACONCAGUA BIO, INC., priority 2023, published 2025)

What follows are compounds tested against T1, human calcitonin receptor (CTR) in COS-7 cells (Homo sapiens, UniProt P30988) (assay: Calcitonin Receptor (CTR) cAMP Assay). Conditions: COS7-human CTR Clone #2 cells; read-out: Calcitonin Receptor cAMP Stimulation Activity: EC50.
T1 construct: expressed in transfected cells; host or cells: COS-7 (COS7-human CTR Clone #2)
T1 sequence (P30988 25-474): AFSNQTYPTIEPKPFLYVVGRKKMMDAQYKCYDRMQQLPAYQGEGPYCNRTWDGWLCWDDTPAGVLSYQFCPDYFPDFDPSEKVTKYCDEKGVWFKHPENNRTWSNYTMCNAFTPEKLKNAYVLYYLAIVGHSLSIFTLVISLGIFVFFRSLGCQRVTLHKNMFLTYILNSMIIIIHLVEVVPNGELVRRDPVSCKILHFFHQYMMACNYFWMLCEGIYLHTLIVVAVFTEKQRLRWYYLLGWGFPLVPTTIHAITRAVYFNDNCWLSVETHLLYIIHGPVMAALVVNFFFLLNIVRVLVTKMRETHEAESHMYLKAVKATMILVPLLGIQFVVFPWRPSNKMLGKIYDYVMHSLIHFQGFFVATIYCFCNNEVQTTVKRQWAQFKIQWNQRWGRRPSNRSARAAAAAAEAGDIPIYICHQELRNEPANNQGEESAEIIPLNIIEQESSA
Assay type: cell-based
Excerpt: Calcitonin Receptor (CTR) cAMP Assay
The calcitonin receptor (CTR) belongs to the subfamily of GPCRs known as the secretin or ‘B’ family of GPCRs. Like other class B1 GPCRs, the CT receptor family is canonically coupled to Gs-mediated cAMP production, and measurement of cAMP accumulation has been the primary assay used to determine peptide selectivity and potency.
To optimize functional activity directed toward Gas coupling, COS-7 cells were stably transfected with human calcitonin receptor (CTR) to create COS7-human CTR Clone #2 stable cell line. 100× concentration of compound working solutions were prepared with 4-fold serial dilution in 384-well Echo LDV plate (Labcyte, Cat #LP-0200-BC). 200 nL/well 100× concentration of compound working solutions were moved to 384-well white microplate (Perkin Elmer, Cat #6007680) using Labcyte ECHO550. 1×10^5 cells/mL COS7-human CTR Clone #2 cell suspensions prepared with assay buffer [HBSS containing 20 mM HEPES (Gibco, Cat #15630-080), 0.5 mM IBMX (Sigma, Cat #15879) and 0.1% Casein (Sigma, Cat #C4765)], 20 μL cell suspensions were added to each well of previous generated assay plate which already contains 200 nL compound at 100× concentration using ThermoFisher Multidrop Combi (2000 cells/well). Seal the plate and incubate at 37° C. with 5% CO2 for 30 min.
After incubation, the cAMP assay signal was generated using cAMP dynamic 2 kit (Revvity, Cat #62AM4PEC). 10 μL cAMP-d2 working solution was added to each well, followed by […] Anti-cAMP antibody-cryptate working solution which was added to each well using CERTUS FLEX LIQUID DISPENSER. The samples were then incubated at room temperature for 1 hour protected from light. the fluorescence was read at 665 and 615 nm with Reader PerkinElmer EnVision 2105.

Row | SMILES | EC50
1 | Cc1nnc(-c2c(CCc3ccc(F)cc3)nc(CC(C)C)c(C(N)=O)c2-c2ccc(C(=O)N[C@@H]3CCc4ccccc43)s2)o1 [Compound 106, N—[(R)-1-indanyl]-5-{5-carbamoyl-2-[2-(p-fluorophenyl)ethyl]-6-isobutyl-3-(5-methyl-1,3,4-oxadiazol-2-yl)-4-pyridyl}-2-thenamide] | 2.1 nM

What follows are compounds tested against human calcitonin receptor (CTR) and RAMP3 (AMY3) in COS-7 cells (Homo sapiens, UniProt O60896+P30988) (assay: Amylin Receptor cAMP Assay I). Conditions: values marked *: Amylin Receptor cAMP Assay I; COS-7/AMY3 cells; read-out: Amylin Receptor cAMP Stimulation Activity: EC50.
Sequence of human calcitonin receptor (CTR) and RAMP3 (AMY3) in COS-7 cells (O60896 24-148, one chain of several): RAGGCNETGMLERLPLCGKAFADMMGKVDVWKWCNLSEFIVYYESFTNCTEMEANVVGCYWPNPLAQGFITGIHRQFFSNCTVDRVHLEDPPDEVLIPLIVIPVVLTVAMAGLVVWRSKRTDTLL
Assay type: cell-based
Outline: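 COS-7 cells stably co-expressing human CTR and RAMP3 (AMY3) were stimulated with serially diluted compounds (4-fold) in DPBS with 0.5 mM IBMX and 0.1% BSA for 30 min at 37 °C, 1000 cells/well. cAMP accumulation was measured by HTRF (cAMP-d2/anti-cAMP cryptate, 1 h RT) read at 665/615 nm.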

Row | SMILES | EC50
2 | Cc1nnc(-c2c(CCc3ccc(F)cc3)nc(CC(C)C)c(C(N)=O)c2-c2ccc(C(=O)N[C@@H]3CCc4ccccc43)s2)o1 [Compound 106, N—[(R)-1-indanyl]-5-{5-carbamoyl-2-[2-(p-fluorophenyl)ethyl]-6-isobutyl-3-(5-methyl-1,3,4-oxadiazol-2-yl)-4-pyridyl}-2-thenamide] | 4.1 nM
3 | Cc1ccn(CCc2nc(CC(C)C)c(C(N)=O)c(-c3ccc(C(=O)NCc4ccc(F)c(F)c4)s3)c2-c2nnc(C)o2)n1 [Compound 183, 4-(5-((3,4-difluorobenzyl)carbamoyl)thiophen-2-yl)-2-isobutyl-5-(5-methyl-1,3,4-oxadiazol-2-yl)-6-(2-(3-methyl-1H-pyrazol-1-yl)ethyl)nicotinamide] | 1910 nM
4 | Cc1nnc(-c2c(CCc3cnn(C)c3)nc(CC(C)C)c(C(N)=O)c2-c2ccc(C(=O)NCc3ccc(F)c(F)c3)s2)o1 [Compound 184, 4-(5-((3,4-difluorobenzyl)carbamoyl)thiophen-2-yl)-2-isobutyl-5-(5-methyl-1,3,4-oxadiazol-2-yl)-6-(2-(1-methyl-1H-pyrazol-4-yl)ethyl)nicotinamide] | 1070 nM
5 | Cc1nnc(-c2c(CC(O)c3ccc(F)cc3)nc(CC(C)C)c(C(N)=O)c2-c2ccc(C(=O)N[C@@H]3CCc4ccccc43)s2)o1 (stereo partly drawn) [Compound 185, 4-(5-(((R)-2,3-dihydro-1H-inden-1-yl)carbamoyl)thiophen-2-yl)-6-(2-(4-fluorophenyl)-2-hydroxyethyl)-2-isobutyl-5-(5-methyl-1,3,4-oxadiazol-2-yl)nicotinamide] | 507 nM
6 | COC(Cc1nc(CC(C)C)c(C(N)=O)c(-c2ccc(C(=O)NCc3ccc(F)c(F)c3)s2)c1-c1nnc(C)o1)c1ccc(F)cc1 (centres unmarked) [Compound 186, 4-(5-((3,4-difluorobenzyl)carbamoyl)thiophen-2-yl)-6-(2-(4-fluorophenyl)-2-methoxyethyl)-2-isobutyl-5-(5-methyl-1,3,4-oxadiazol-2-yl)nicotinamide] | 123 nM
7 | Cc1nnc(-c2c(CC(F)c3ccc(F)cc3)nc(CC(C)C)c(C(N)=O)c2-c2ccc(C(=O)N[C@@H]3CCc4ccccc43)s2)o1 (stereo partly drawn) [Compound 187, 4-(5-(((R)-2,3-dihydro-1H-inden-1-yl)carbamoyl)thiophen-2-yl)-6-(2-fluoro-2-(4-fluorophenyl)ethyl)-2-isobutyl-5-(5-methyl-1,3,4-oxadiazol-2-yl)nicotinamide] | 99.3 nM
8 | Cc1nnc(-c2c(CCC(F)F)nc(CC(C)C)c(C(N)=O)c2-c2ccc(C(=O)NCc3ccc(F)c(F)c3)s2)o1 [Compound 189, 4-(5-((3,4-difluorobenzyl)carbamoyl)thiophen-2-yl)-6-(3,3-difluoropropyl)-2-isobutyl-5-(5-methyl-1,3,4-oxadiazol-2-yl)nicotinamide] | > 1000 nM
9 | Cc1nnc(-c2c(CC(C)c3ccc(F)cc3)nc(CC(C)C)c(C(N)=O)c2-c2ccc(C(=O)N[C@@H]3CCc4ncccc43)s2)o1 (stereo partly drawn) [Compound 191, 4-(5-(((R)-6,7-dihydro-5H-cyclopenta[b]pyridin-5-yl)carbamoyl)thiophen-2-yl)-6-(2-(4-fluorophenyl)propyl)-2-isobutyl-5-(5-methyl-1,3,4-oxadiazol-2-yl)nicotinamide] | 1080 nM
10 | Cc1nnc(-c2c(CC3CC3(F)F)nc(CC(C)C)c(C(N)=O)c2-c2ccc(C(=O)NCc3ccc(F)c(F)c3)s2)o1 (centres unmarked) [Compound 192, 4-(5-((3,4-difluorobenzyl)carbamoyl)thiophen-2-yl)-6-((2,2-difluorocyclopropyl)methyl)-2-isobutyl-5-(5-methyl-1,3,4-oxadiazol-2-yl)nicotinamide] | > 1000 nM
11 | Cc1nnc(-c2c(CC3CC(F)(F)C3)nc(CC(C)C)c(C(N)=O)c2-c2ccc(C(=O)NCc3ccc(F)c(F)c3)s2)o1 [Compound 193, 4-(5-((3,4-difluorobenzyl)carbamoyl)thiophen-2-yl)-6-((3,3-difluorocyclobutyl)methyl)-2-isobutyl-5-(5-methyl-1,3,4-oxadiazol-2-yl)nicotinamide] | 3550 nM
12 | Cc1nnc(-c2c(C34CC(C(F)(F)F)(C3)C4)nc(CC(C)C)c(C(N)=O)c2-c2ccc(C(=O)NCc3ccc(F)c(F)c3)s2)o1 [Compound 194, 4-(5-((3,4-difluorobenzyl)carbamoyl)thiophen-2-yl)-2-isobutyl-5-(5-methyl-1,3,4-oxadiazol-2-yl)-6-(3-(trifluoromethyl)bicyclo[1.1.1]pentan-1-yl)nicotinamide] | 3400 nM
13 | Cc1ccc(CCc2nc(CC(C)C)c(C(N)=O)c(-c3ccc(C(=O)N[C@@H]4CCc5ncccc54)s3)c2-c2nnc(C)o2)nc1 [Compound 195, (R)-4-(5-((6,7-dihydro-5H-cyclopenta[b]pyridin-5-yl)carbamoyl)thiophen-2-yl)-2-isobutyl-5-(5-methyl-1,3,4-oxadiazol-2-yl)-6-(2-(5-methylpyridin-2-yl)ethyl)nicotinamide] | 39900 nM
14 | Cc1nnc(-c2c(CCC3CCOCC3)nc(CC(C)C)c(C(N)=O)c2-c2cc3ccnc(N[C@@H]4CCc5ncccc54)c3s2)o1 [Compound 196, (R)-4-(7-((6,7-dihydro-5H-cyclopenta[b]pyridin-5-yl)amino)thieno[2,3-c]pyridin-2-yl)-2-isobutyl-5-(5-methyl-1,3,4-oxadiazol-2-yl)-6-(2-(tetrahydro-2H-pyran-4-yl)ethyl)nicotinamide] | 279 nM
15 | COc1cccc2c1CC[C@H]2Nc1nccc2cc(-c3c(C(N)=O)c(CC(C)C)nc(CCC4CCOCC4)c3-c3ncc(C)o3)sc12 [Compound 198, (R)-2-isobutyl-4-(7-((4-methoxy-2,3-dihydro-1H-inden-1-yl)amino)thieno[2,3-c]pyridin-2-yl)-5-(5-methyloxazol-2-yl)-6-(2-(tetrahydro-2H-pyran-4-yl)ethyl)nicotinamide] | 229 nM
16 | CCc1nc(CC(C)C)c(C(N)=O)c(-c2ccc(C(=O)NCc3ccc(F)c(F)c3)cc2)c1-c1nnc(C)o1 [Compound 199, 4-(4-((3,4-difluorobenzyl)carbamoyl)phenyl)-6-ethyl-2-isobutyl-5-(5-methyl-1,3,4-oxadiazol-2-yl)nicotinamide] | > 1000 nM
17 | Cc1nnc(-c2c(CCc3ccc(F)cc3)nc(CC(C)C)c(C(N)=O)c2-c2cc3ccnc(NCc4ccccn4)c3s2)o1 [Compound 200, 6-(4-fluorophenethyl)-2-isobutyl-5-(5-methyl-1,3,4-oxadiazol-2-yl)-4-(7-((pyridin-2-ylmethyl)amino)thieno[2,3-c]pyridin-2-yl)nicotinamide] | 273 nM
18 | Cc1nnc(-c2c(CCc3ccc(F)cc3)nc(CC(C)C)c(C(N)=O)c2-c2cc3ccnc(NCc4cccnc4)c3s2)o1 [Compound 201, 6-(4-fluorophenethyl)-2-isobutyl-5-(5-methyl-1,3,4-oxadiazol-2-yl)-4-(7-((pyridin-3-ylmethyl)amino)thieno[2,3-c]pyridin-2-yl)nicotinamide] | 381 nM
19 | Cc1nnc(-c2c(CCc3ccc(F)cc3)nc(CC(C)C)c(C(N)=O)c2-c2cc3ccnc(NCc4ccncc4)c3s2)o1 [Compound 202, 6-(4-fluorophenethyl)-2-isobutyl-5-(5-methyl-1,3,4-oxadiazol-2-yl)-4-(7-((pyridin-4-ylmethyl)amino)thieno[2,3-c]pyridin-2-yl)nicotinamide] | 242 nM
20 | CC(C)Cc1nc(CCc2ccc(F)cc2)c(-c2ccn(C)n2)c(-c2ccc(C(=O)NCc3ccc(F)c(F)c3)s2)c1C(N)=O [Compound 204, 4-(5-((3,4-difluorobenzyl)carbamoyl)thiophen-2-yl)-6-(4-fluorophenethyl)-2-isobutyl-5-(1-methyl-1H-pyrazol-3-yl)nicotinamide] | 67.3 nM
